The test deals with T1, Human IP6K1 (Homo sapiens, UniProt Q92551).
T1 construct: GST (N, cleaved yes); made in house; host or cells: C43 E. coli, pGEX-6P-2
Put plainly: IP6K1 high-throughput screen of the Sigma LOPAC (ADP-Glo Max, single point).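 Further: final compound concentration 10µM in 5% DMSO.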 The class given is biochemical. (In ADP-Glo the light output rises with the ADP produced.)

[1] abbreviates: LOPAC single-point screen, ADP-Glo Max luminescence raw signal per well.
[2] abbreviates: LOPAC single-point screen, Z-score relative to plate average and StDev.
Setting [3] is: LOPAC single-point screen, ADP-Glo Max raw signal per well.
The mark [4] stands for this setting: LOPAC single-point screen, Z-score against plate average and StDev.
[5] abbreviates: Sigma LOPAC single-point screen, ADP-Glo Max raw signal per well.
The mark [6] stands for this setting: Sigma LOPAC single-point screen, Z-score from plate average and StDev.
[7] abbreviates: LOPAC single-point screen, Z-score from raw signal with plate average and StDev.
[8] abbreviates: LOPAC single-point screen, Z-score from plate average and StDev.

Experimental findings from paper PMC5706701, “Development of a homogenous high-throughput assay for inositol hexakisphosphate kinase 1 activity” (PLoS ONE, 2017) are described below.

Structures can show the parent of a compound that is named as a salt. Where two headings read alike, the source gives them in different places.

T1 sequence (Q92551 whole entry): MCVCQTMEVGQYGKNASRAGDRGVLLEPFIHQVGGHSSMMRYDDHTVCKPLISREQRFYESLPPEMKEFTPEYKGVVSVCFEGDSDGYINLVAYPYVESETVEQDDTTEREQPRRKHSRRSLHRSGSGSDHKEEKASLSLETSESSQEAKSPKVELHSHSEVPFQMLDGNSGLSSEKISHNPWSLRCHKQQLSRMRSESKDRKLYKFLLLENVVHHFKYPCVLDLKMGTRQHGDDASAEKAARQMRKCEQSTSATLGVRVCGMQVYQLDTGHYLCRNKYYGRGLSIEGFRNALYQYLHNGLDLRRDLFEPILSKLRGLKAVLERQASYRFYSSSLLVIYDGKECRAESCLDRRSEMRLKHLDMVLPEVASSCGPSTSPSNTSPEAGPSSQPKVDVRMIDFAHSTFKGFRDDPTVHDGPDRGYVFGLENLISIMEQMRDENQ

Consider `Cc1ccc(C(=O)Nc2ccc(S(=O)(=O)O)c3cc(S(=O)(=O)O)cc(S(=O)(=O)O)c23)cc1NC(=O)c1cccc(NC(=O)Nc2cccc(C(=O)Nc3cc(C(=O)Nc4ccc(S(=O)(=O)O)c5cc(S(=O)(=O)O)cc(S(=O)(=O)O)c45)ccc3C)c2)c1` [Suramin hexasodium], for which, under setting [1], the “Raw Signal” value worked out at 10286. The Z-score under setting [2] is on record as -8.886. As for `Br.Br.N=C(N)SCCN`, the “Raw Signal” value under setting [3] is reported as 59514. The Z-score under setting [4] is recorded as 0.282. As to `NC(CCCP(=O)(O)O)C(=O)O` (racemic) [(±)-2-Amino-5-phosphonopentanoic acid], the “Raw Signal” value under setting [5] was found to be 60299. The Z-score under setting [6] is recorded as 0.4202. `Cc1cc(N)c2ccccc2[n+]1CCCCCCCCCC[n+]1c(C)cc(N)c2ccccc21` [Dequalinium dichloride]: the “Raw Signal” value under setting [3] worked out at 55705. Further, the Z-score under setting [4] was 0.1093. On to `N[C@@H](CCC(=O)N[C@@H](CSN=O)C(=O)NCC(=O)O)C(=O)O` [S-Nitrosoglutathione], for which the “Raw Signal” value under setting [3] worked out at 53456. This molecule yielded a Z-score under setting [7] of -0.1575.

`O=c1ccn(C2OC(COP(=O)(O)OP(=O)([O-])O)C(O)C2O)c(=O)[nH]1.[Na+]` (stereo not shown) [Uridine 5 -diphosphate sodium]: the “Raw Signal” value under setting [5] turned out to be 58265. The molecule also registered a Z-score under setting [6] of 0.4354.

`CC[C@@H]1C(=O)OC[C@@H]1Cc1cncn1C` [Pilocarpine nitrate]: under setting [5], the “Raw Signal” value came out at 59730. Moreover, the Z-score under setting [6] is reported as 0.8967. In the case of `CC[N+](CC)(CC)CC` [Tetraethylammonium chloride], the “Raw Signal” value is given as 56416 and the Z-score is recorded as 0.0762. Regarding `C[C@H]1CCC/C=C/[C@@H]2C[C@H](O)C[C@H]2[C@H](O)/C=C/C(=O)O1`, the “Raw Signal” value under setting [5] is given as 59928. In addition, the Z-score under setting [6] turned out to be 0.3549. Consider `Nc1nc(N)c2nc(-c3ccccc3)c(N)nc2n1` [Triamterene], for which the “Raw Signal” value under setting [1] was determined as 65476. The molecule also showed a Z-score under setting [8] of 1.836. As for `N#C/C(=C\c1ccc(O)c(O)c1)C(=O)NCCCc1ccccc1` [Tyrphostin AG 555], the “Raw Signal” value under setting [3] turned out to be 55783. The molecule also showed a Z-score under setting [4] of -0.04678. For `CC(C)[C@H]1CN[C@H](C(=O)O)[C@H]1CC(=O)O` [Dihydrokainic acid], the “Raw Signal” value under setting [3] was 53229. Also, the Z-score under setting [7] was -0.3936.

Regarding `CC(=O)N[C@@H](CS)C(=O)O` [N-Acetyl-L-Cysteine], the “Raw Signal” value under setting [5] was 65323. This molecule also displayed a Z-score under setting [6] of 1.305. As for `O=c1[nH]c2ccccc2n1CCCN1CCC(n2c(=O)[nH]c3cc(Cl)ccc32)CC1` [Domperidone], under setting [1], the “Raw Signal” value is on record as 51707. Moreover, under setting [2], the Z-score was -0.7027. On the same counts, the results for `NCCc1ccc(O)c(O)c1` [Dopamine hydrochloride] are 44704 and -2.125.

`CN1Cc2c(N)cccc2C(c2ccccc2)C1` (stereo not shown) [Nomifensine maleate]: under setting [3], the “Raw Signal” value is recorded as 56397. This molecule also yielded a Z-score under setting [4] of 0.3366. On the same counts, the results for `CCCCCCCCCCCCCCC[C@H](O)[C@H](N)CO` (racemic) [DL-erythro-Dihydrosphingosine] are 54857 and -0.06296. Take `CCOC(=O)C(C)(C)Oc1ccc(Cl)cc1` [Clofibrate]: the “Raw Signal” value under setting [3] turned out to be 58171. Under setting [4], this molecule returned a Z-score of 0.04542.

Consider `CCCn1c(=O)c2[nH]c(C3CCCC3)nc2n(CCC)c1=O` [8-Cyclopentyl-1,3-dipropylxanthine], for which the “Raw Signal” value under setting [3] came out at 55782. The Z-score under setting [4] worked out at 0.1249. As for `CNC(=O)OCC[N+](C)(C)C` [Methylcarbamylcholine chloride], the “Raw Signal” value under setting [5] stood at 60360. The Z-score under setting [6] turned out to be 1.003. Take `O=P1(N(CCCl)CCCl)NCCCO1` (stereo not shown) [Cyclophosphamide monohydrate]: the “Raw Signal” value is 58935 and the Z-score came to 0.18. For the molecule `[H]/N=C(/NC)NCCC[C@H](N)C(=O)O` [NG-Monomethyl-L-arginine acetate], the “Raw Signal” value under setting [1] is on record as 51513. The Z-score under setting [2] is on record as -0.484. Turning to `O=c1[nH]c(=O)n([C@H]2C[C@H](O)[C@@H](CO)O2)cc1/C=C/Br` [(E)-5-(2-Bromovinyl)-2-deoxyuridine], the “Raw Signal” value under setting [3] is recorded as 57888. Further, the Z-score under setting [4] is recorded as -0.004421. As for `Cl.c1ccc([C@H]2CN3CCSC3=N2)cc1` [(-)-Tetramisole hydrochloride], the “Raw Signal” value worked out at 55029 and the Z-score was 0.1068.

Consider `OCC1OC(n2cnc3ccccc32)C(O)C1O` [D-ribofuranosylbenzimidazole], for which the “Raw Signal” value under setting [1] worked out at 49673. Moreover, the Z-score under setting [2] is given as -1.116.

As to `CO/N=C(\C(=O)N[C@@H]1C(=O)N2C(C(=O)O)=C(CSc3nc(=O)c(=O)[nH]n3C)CS[C@H]12)c1csc(N)n1` [Ceftriaxone sodium], under setting [3], the “Raw Signal” value turned out to be 55787. Under setting [7], this molecule gave a Z-score of -0.3745.

For the molecule `Nc1nc(OCc2ccccc2)c2nc[nH]c2n1` [O6-benzylguanine], under setting [3], the “Raw Signal” value is reported as 56623. This molecule also returned a Z-score under setting [7] of -0.2272. Consider `CC1=C(/C=C/C(C)=C/C=C/C(C)=C\C(=O)O)C(C)(C)CCC1` [13-cis-retinoic acid], for which the “Raw Signal” value under setting [3] was 55954. Also, the Z-score under setting [4] is reported as -0.01356.

Regarding `COc1cc(CC(C)N)c(OC)cc1I.Cl` (racemic) [(±)-DOI hydrochloride], the “Raw Signal” value under setting [1] is 52125. In addition, under setting [2], the Z-score is recorded as -0.6178. As to `NCC(CC(=O)O)c1ccc(Cl)cc1` (racemic) [(±)-Baclofen], under setting [5], the “Raw Signal” value is recorded as 65373. Under setting [6], this molecule yielded a Z-score of 1.3139. Take `CC[C@H]1CN2CCc3cc(OC)c(OC)cc3[C@@H]2C[C@@H]1C[C@H]1NCCc2cc(OC)c(OC)cc21` [Emetine dihydrochloride hydrate]: the “Raw Signal” value under setting [3] is 52998. Moreover, under setting [7], the Z-score was -0.4405. On to `O=C(O)C1CCCNC1` (racemic) [(±)-Nipecotic acid], for which, under setting [5], the “Raw Signal” value came out at 63719. Under setting [6], the Z-score is recorded as 1.023. Take `O=C(O)c1cccnc1C(=O)O` [Quinolinic acid]: the “Raw Signal” value under setting [1] was 51489. The molecule also had a Z-score under setting [2] of -0.881. As to `CC(NC(C)(C)C)C(=O)c1cccc(Cl)c1` (stereo not shown) [Bupropion hydrochloride], the “Raw Signal” value under setting [3] is 56700. The Z-score under setting [7] is given as -0.2137. Take `CCn1cc(C(=O)[O-])c(=O)c2ccc(C)nc21.[Na+]` [Nalidixic acid sodium]: the “Raw Signal” value under setting [1] turned out to be 49665. The molecule also returned a Z-score under setting [2] of -0.7945.

Consider `Nc1ncnc2c1ncn2[C@@H]1O[C@H](C(=O)NC2CC2)[C@@H](O)[C@H]1O` [5 -(N-Cyclopropyl)carboxamidoadenosine], for which the “Raw Signal” value under setting [3] came to 57761. Further, the Z-score under setting [4] is given as -0.02679. In the case of `CC(C)=CCC/C(C)=C/CC/C(C)=C/CSc1ccccc1C(=O)O` [Farnesylthiosalicylic acid], the “Raw Signal” value under setting [1] worked out at 51239. Besides, the Z-score under setting [2] was -0.7977. On to `CC(C)(C)NCC(O)c1ccc(O)c(CO)c1` (stereo not shown) [Salbutamol], for which, under setting [7], the Z-score is on record as -0.2712. On to `CC(=O)[C@H]1CC[C@H]2[C@@H]3CC[C@H]4C[C@H](O)CC[C@]4(C)[C@H]3CC[C@]12C` [5alpha-Pregnan-3alpha-ol-20-one], for which, under setting [3], the “Raw Signal” value came out at 55941. For the same molecule, the Z-score under setting [4] is reported as -0.01609. For the molecule `CCN1CCC[C@H]1CNC(=O)c1c(O)c(Cl)cc(Cl)c1OC.O=C(O)C(O)C(O)C(=O)O` (racemic) [S(+)-Raclopride L-tartrate], under setting [5], the “Raw Signal” value is on record as 59305. Also, the Z-score under setting [6] came to 0.6375. For `CCCCCCCCCCCCC/C=C/[C@@H](O)[C@@H](N)CO` [Sphingosine], the “Raw Signal” value under setting [1] is given as 64012. This molecule also registered a Z-score under setting [8] of 1.552. On the same counts, the results for `CN(C)C/C=C(/c1ccc(Br)cc1)c1cccnc1` [Zimelidine dihydrochloride] are 63127 and 1.38. As for `Cc1nc2c(OCc3ccccc3)cccn2c1CC#N` [SCH-28080], under setting [1], the “Raw Signal” value is reported as 49264. For the same molecule, the Z-score under setting [2] was -1.199. `CCCN1CCO[C@@H]2c3cc(O)ccc3OC[C@H]21.Cl` [S(+)-PD 128,907 hydrochloride]: under setting [3], the “Raw Signal” value stood at 56406. Under setting [4], this molecule had a Z-score of 0.07425. As for `Cl.c1ccc2nc(C3=NCCN3)ccc2c1` [BU224 hydrochloride], the “Raw Signal” value under setting [5] is 61573. Under setting [6], this molecule returned a Z-score of 0.6446. On the same counts, the results for `Nc1ncnc2c1ncn2C1CCCC1` [9-cyclopentyladenine] are 60166 and 0.3968. In the case of `NC(=S)c1ccc[n+]([C@@H]2O[C@@H](COP(=O)([O-])OP(=O)(O)OC[C@H]3O[C@@H](n4cnc5c(N)ncnc54)C(OP(=O)([O-])O)[C@H]3O)C(O)C2O)c1.[Na+]` (stereo partly shown) [Thio-NADP sodium], under setting [3], the “Raw Signal” value came out at 56703. For the same molecule, the Z-score under setting [4] is 0.132. For the molecule `Cl.Cl.c1ccc(CCCN2CCN(CCOC(c3ccccc3)c3ccccc3)CC2)cc1` [GBR-12935 dihydrochloride], the “Raw Signal” value under setting [1] was determined as 62907. The Z-score under setting [8] is listed as 1.572. With `O=S(=O)(c1cccc2cnccc12)N1CCNCC1` [HA-100], under setting [5], the “Raw Signal” value was 57010. This molecule gave a Z-score under setting [6] of 0.3743. On the same counts, the results for `COC(=O)[C@H](NC(=O)c1cc(-c2ccccc2)nc2ccccc12)c1ccccc1` [SB 218795] are 57840 and 0.5429.

`CCCn1c(=O)c2[nH]c(-c3ccc(S(=O)(=O)O)cc3)nc2n(CCC)c1=O` [1,3-Dipropyl-8-p-sulfophenylxanthine]: the “Raw Signal” value under setting [1] came out at 54862. Further, under setting [2], the Z-score was -0.5374. `N#CC(C#N)=Cc1ccc([N+](=O)[O-])c(O)c1` [Tyrphostin AG 126]: the “Raw Signal” value under setting [1] came to 65028. Besides, the Z-score under setting [8] was 1.749.
